Consider 73 sequences from the supplement of paper PMC11208160.

The nature of the series: recombinant barcode read abundance after kanamycin selection (control-corrected) (log10(CPM+1)); higher = more efficient recombination; sequences stand for … in AGTGCAGAGAAAATCGGCCAGTTTTCTCTGCCTGCAGTCCGCATGCCGT…AGATTTATGCAGCGGACTGCCTTTCTCCCAAAGTGATAAACCGGACAGTATCATGGACCGGTTTTCCCGGTAATCCGTATTTGCAAGGTTGGTTTCACT; site = the 11-nt target. The protocol:
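Pooled E. coli target-specificity screen for the IS621 bridge recombinase. Each library plasmid pairs an 11-nt target (CT core) with a bridge RNA whose target-binding loop (9-nt LTG + 4-nt RTG) is reprogrammed; the rest of the 177-nt WT IS621 bridge RNA scaffold is fixed. The plasmid is co-electroporated with a WT donor plasmid; recombinase is induced with 0.1 mM IPTG and recombinants are selected on kanamycin. Recombinant barcodes are sequenced, converted to CPM, averaged over two biological replicates and corrected by the unselected control CPM. Molecule = full bridge RNA written as DNA: LTG = specificity nt 1-9, RTG = reverse complement of specificity nt 8-11, in the WT scaffold.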
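Further: IS621 recombinase and bridge RNA in Escherichia coli cells.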

For the sequence “AGACGTCCTTGGGTTCTAACCTGTTGCTT (site AGACCTCCTAA)”, the “recombinant barcode read abundance (log10)” value was determined as 0.162.

On to “AGACGTCCTTGGGTTCTAACCTGTTGCTT (site AGACGTCCTAA)”, for which the “recombinant barcode read abundance (log10)” value was 1.03.

Regarding “AGACGTCCTTGGGTTCTAACCTGTTGCTT (site AGACTTCCTAA)”, the “recombinant barcode read abundance (log10)” value was 0.15.

Consider “AGAGCTCCTTGGGTTCTAACCTGTTGCGG (site AGAGCTCCTCC)”, for which the “recombinant barcode read abundance (log10)” value is 1.28.

As to “AGAGCTCCTTGGGTTCTAACCTGTTGCGG (site AGTGCTCCTCC)”, the “recombinant barcode read abundance (log10)” value is 0.196.

As for “AGAGGACCTTGGGTTCTAACCTGTTGCCT (site AGAGGACCTAG)”, the “recombinant barcode read abundance (log10)” value stood at 2.32.

On to “AGAGGACCTTGGGTTCTAACCTGTTGCCT (site TGAGCACCTAG)”, for which the “recombinant barcode read abundance (log10)” value stood at 0.213.

Regarding “AGAGGTTCTTGGGTTCTAACCTGTTGCCT (site AAAGGTTCTAG)”, the “recombinant barcode read abundance (log10)” value was found to be 0.141.

Take “AGAGGTTCTTGGGTTCTAACCTGTTGCCT (site ACAGGTTCTAG)”: the “recombinant barcode read abundance (log10)” value came to 0.0172.

On to “AGAGGTTCTTGGGTTCTAACCTGTTGCCT (site AGAGGTTCTAG)”, for which the “recombinant barcode read abundance (log10)” value was 1.58.

For the sequence “AGAGGTTCTTGGGTTCTAACCTGTTGCCT (site ATAGGTTCTAG)”, the “recombinant barcode read abundance (log10)” value turned out to be 0.271.

For “AGAGTAACTTGGGTTCTAACCTGTTGCAC (site AGAGTAACTGT)”, the “recombinant barcode read abundance (log10)” value was 2.19.

For “AGAGTAACTTGGGTTCTAACCTGTTGCAC (site TCTCGTTCTTA)”, the “recombinant barcode read abundance (log10)” value is 0.063.

Regarding “AGAGTCCCTTGGGTTCTAACCTGTTGCGG (site AGAGTCCCTCC)”, the “recombinant barcode read abundance (log10)” value was 3.09.

On to “AGAGTCCCTTGGGTTCTAACCTGTTGCGG (site AGAGTCTCTCA)”, for which the “recombinant barcode read abundance (log10)” value came out at 0.295.

For the sequence “AGAGTCTCTTGGGTTCTAACCTGTTGCTG (site AGAGTCCCTCC)”, the “recombinant barcode read abundance (log10)” value amounted to 0.101.

For “AGAGTCTCTTGGGTTCTAACCTGTTGCTG (site AGAGTCTCTCA)”, the “recombinant barcode read abundance (log10)” value was determined as 0.78.

With “AGATACTCTTGGGTTCTAACCTGTTGCCT (site ACATAGTCTAG)”, the “recombinant barcode read abundance (log10)” value amounted to 0.428.

“AGATACTCTTGGGTTCTAACCTGTTGCCT (site AGATACTCTAG)”: the “recombinant barcode read abundance (log10)” value was found to be 2.66.

As to “AGATATACTTGGGTTCTAACCTGTTGCTT (site AGATATACTAA)”, the “recombinant barcode read abundance (log10)” value is 0.167.

For the sequence “AGATATACTTGGGTTCTAACCTGTTGCTT (site CACCTGTCTCC)”, the “recombinant barcode read abundance (log10)” value was 0.0796.

As to “AGATCTCCTTGGGTTCTAACCTGTTGCGT (site AGATCTCCTAC)”, the “recombinant barcode read abundance (log10)” value worked out at 0.777.

On to “AGATCTCCTTGGGTTCTAACCTGTTGCGT (site TCGAAGTCTTA)”, for which the “recombinant barcode read abundance (log10)” value came out at 0.0154.

As for “AGATGAGCTTGGGTTCTAACCTGTTGCGG (site AAATGGGCTCC)”, the “recombinant barcode read abundance (log10)” value is 0.0978.

With “AGATGAGCTTGGGTTCTAACCTGTTGCGG (site AGATGAGCTCC)”, the “recombinant barcode read abundance (log10)” value came to 1.51.

In the case of “AGATGTGCTTGGGTTCTAACCTGTTGCCT (site AGATGTGCTAG)”, the “recombinant barcode read abundance (log10)” value came to 1.49.

Take “AGATGTGCTTGGGTTCTAACCTGTTGCCT (site CACAAACCTCT)”: the “recombinant barcode read abundance (log10)” value amounted to 0.181.

On to “AGATTATCTTGGGTTCTAACCTGTTGCCT (site AGAATATCTAG)”, for which the “recombinant barcode read abundance (log10)” value is 0.21.

As for “AGATTATCTTGGGTTCTAACCTGTTGCCT (site AGATTATCTAG)”, the “recombinant barcode read abundance (log10)” value turned out to be 1.32.

Regarding “AGCAGCACTTGGGTTCTAACCTGTTGCCT (site AGCAGCACTAG)”, the “recombinant barcode read abundance (log10)” value stood at 0.731.

As for “AGCAGCACTTGGGTTCTAACCTGTTGCCT (site CGCAGCACTAG)”, the “recombinant barcode read abundance (log10)” value was determined as 0.298.

As to “AGCAGTACTTGGGTTCTAACCTGTTGCTA (site AGCAGTACTTA)”, the “recombinant barcode read abundance (log10)” value was found to be 0.299.

For the sequence “AGCAGTACTTGGGTTCTAACCTGTTGCTA (site TTGGAGGCTAG)”, the “recombinant barcode read abundance (log10)” value came to 0.248.

In the case of “AGCATCTCTTGGGTTCTAACCTGTTGCCG (site AGCATCTCTCG)”, the “recombinant barcode read abundance (log10)” value turned out to be 0.222.

With “AGCATCTCTTGGGTTCTAACCTGTTGCCG (site CCTTGTACTAA)”, the “recombinant barcode read abundance (log10)” value amounted to 0.0503.

With “AGCATTCCTTGGGTTCTAACCTGTTGCCT (site AGCAGTGCTAG)”, the “recombinant barcode read abundance (log10)” value is 0.144.

Regarding “AGCATTCCTTGGGTTCTAACCTGTTGCCT (site AGCATTCCTAG)”, the “recombinant barcode read abundance (log10)” value came out at 0.394.

On to “AGCCCTCCTTGGGTTCTAACCTGTTGCTC (site AGCCCTCCTAA)”, for which the “recombinant barcode read abundance (log10)” value came to 0.01.

Take “AGCCCTCCTTGGGTTCTAACCTGTTGCTC (site AGCCCTCCTCA)”: the “recombinant barcode read abundance (log10)” value was 0.26.

On to “AGCCCTCCTTGGGTTCTAACCTGTTGCTC (site AGCCCTCCTGA)”, for which the “recombinant barcode read abundance (log10)” value came out at 1.19.

As for “AGCCCTCCTTGGGTTCTAACCTGTTGCTC (site AGCCCTCCTTA)”, the “recombinant barcode read abundance (log10)” value amounted to 0.0233.

As for “AGCGGTCCTTGGGTTCTAACCTGTTGCCT (site AGCGGACCTAG)”, the “recombinant barcode read abundance (log10)” value amounted to 0.797.

Regarding “AGCGGTCCTTGGGTTCTAACCTGTTGCCT (site AGCGGCCCTAG)”, the “recombinant barcode read abundance (log10)” value is 1.05.

For “AGCGGTCCTTGGGTTCTAACCTGTTGCCT (site AGCGGGCCTAG)”, the “recombinant barcode read abundance (log10)” value stood at 0.409.

For the sequence “AGCGGTCCTTGGGTTCTAACCTGTTGCCT (site AGCGGTCCTAG)”, the “recombinant barcode read abundance (log10)” value is 1.89.

Regarding “AGCGTCGCTTGGGTTCTAACCTGTTGCCT (site AGCGTCGCTAG)”, the “recombinant barcode read abundance (log10)” value is 1.45.

For “AGCGTCGCTTGGGTTCTAACCTGTTGCCT (site TGCGTCGCTAG)”, the “recombinant barcode read abundance (log10)” value turned out to be 0.16.

As for “AGCGTTGCTTGGGTTCTAACCTGTTGCCT (site AGCATTGCTAG)”, the “recombinant barcode read abundance (log10)” value came to 0.558.

“AGCGTTGCTTGGGTTCTAACCTGTTGCCT (site AGCCTTGCTAG)”: the “recombinant barcode read abundance (log10)” value stood at 0.142.

Consider “AGCGTTGCTTGGGTTCTAACCTGTTGCCT (site AGCGTTGCTAG)”, for which the “recombinant barcode read abundance (log10)” value is 1.05.

“AGCGTTGCTTGGGTTCTAACCTGTTGCCT (site AGCTTTGCTAG)”: the “recombinant barcode read abundance (log10)” value was determined as 0.16.

Take “AGCTCCGCTTGGGTTCTAACCTGTTGCCT (site AGCTCCGCTAG)”: the “recombinant barcode read abundance (log10)” value was 0.222.

For “AGCTCCGCTTGGGTTCTAACCTGTTGCCT (site TGCTCGGCTAG)”, the “recombinant barcode read abundance (log10)” value amounted to 0.2.

“AGCTGATCTTGGGTTCTAACCTGTTGCCT (site AGCTGATCTAG)”: the “recombinant barcode read abundance (log10)” value came out at 0.261.

In the case of “AGCTGATCTTGGGTTCTAACCTGTTGCCT (site CGCTGATCTAG)”, the “recombinant barcode read abundance (log10)” value was 0.0237.

On to “AGCTGATCTTGGGTTCTAACCTGTTGCCT (site GGCTGATCTAG)”, for which the “recombinant barcode read abundance (log10)” value is 0.147.

Regarding “AGCTGATCTTGGGTTCTAACCTGTTGCCT (site TGCTGATCTAG)”, the “recombinant barcode read abundance (log10)” value came to 0.015.

For the sequence “AGCTGGGCTTGGGTTCTAACCTGTTGCGG (site AGCTGGGCTCC)”, the “recombinant barcode read abundance (log10)” value worked out at 1.6.

As for “AGCTGGGCTTGGGTTCTAACCTGTTGCGG (site AGTTGGGCTCA)”, the “recombinant barcode read abundance (log10)” value was 0.393.

As for “AGCTTAGCTTGGGTTCTAACCTGTTGCCT (site AGCTTAGCTAG)”, the “recombinant barcode read abundance (log10)” value amounted to 0.555.

In the case of “AGCTTAGCTTGGGTTCTAACCTGTTGCCT (site AGCTTAGCTCG)”, the “recombinant barcode read abundance (log10)” value was found to be 0.577.

As for “AGCTTAGCTTGGGTTCTAACCTGTTGCCT (site AGCTTAGCTGG)”, the “recombinant barcode read abundance (log10)” value was 0.206.

As to “AGCTTAGCTTGGGTTCTAACCTGTTGCCT (site AGCTTAGCTTG)”, the “recombinant barcode read abundance (log10)” value stood at 0.158.

On to “AGGAACCCTTGGGTTCTAACCTGTTGCTA (site AGGAACCCTAA)”, for which the “recombinant barcode read abundance (log10)” value stood at 0.316.

Consider “AGGAACCCTTGGGTTCTAACCTGTTGCTA (site AGGAACCCTCA)”, for which the “recombinant barcode read abundance (log10)” value amounted to 0.0647.

On to “AGGAACCCTTGGGTTCTAACCTGTTGCTA (site AGGAACCCTGA)”, for which the “recombinant barcode read abundance (log10)” value came to 0.02.

Take “AGGAACCCTTGGGTTCTAACCTGTTGCTA (site AGGAACCCTTA)”: the “recombinant barcode read abundance (log10)” value is 1.44.

Consider “AGGAACCCTTGGGTTCTAACCTGTTGCTC (site AGGAACCCTAA)”, for which the “recombinant barcode read abundance (log10)” value was found to be 0.19.

As to “AGGAACCCTTGGGTTCTAACCTGTTGCTC (site AGGAACCCTCA)”, the “recombinant barcode read abundance (log10)” value was 1.05.

For the sequence “AGGAACCCTTGGGTTCTAACCTGTTGCTC (site AGGAACCCTGA)”, the “recombinant barcode read abundance (log10)” value was 0.574.

For “AGGAACCCTTGGGTTCTAACCTGTTGCTC (site AGGAACCCTTA)”, the “recombinant barcode read abundance (log10)” value came out at 0.0757.

As for “AGGAACTCTTGGGTTCTAACCTGTTGCCT (site AGGAACTCTAG)”, the “recombinant barcode read abundance (log10)” value turned out to be 2.52.

For “AGGAACTCTTGGGTTCTAACCTGTTGCCT (site CGGAACTCTAG)”, the “recombinant barcode read abundance (log10)” value is 0.573.
